Test results from patent US9156816B2 (priority 2010, dated 2015).

What was measured:
[1] = test system: tomato late blight pathogen (Phytophthora infestans); test: whole plant or invertebrate; format: in vivo; settings: 96 h, read-out: control value
Pythium ultimum = test: Cucumber damping-off (PU) control test; format: in vivo; settings: Globisporangium ultimum, 168 h, soil irrigated with 30 ml emulsion at active ingredient concentration of 100 ppm, ratio of healthy seedlings on day 7 after planting vs untreated group
Method: 40 ml of sterile soil were placed in plastic cups followed by leveling the surface of the soil. The soil was then irrigated with 30 ml of the aforementioned emulsion of Preparation Example 2 at an active ingredient concentration of 100 ppm. Following irrigation, cucumbers (variety: Sagami Hanjiro) were planted in the soil and covered with 20 ml of contaminated soil (containing Pythium ultimum) from above. The cups were then placed in plastic bags and allowed to stand undisturbed for 3 days in a constant temperature room at 25° C. (dark location […]). Next, the plants were removed from the bags and held in a constant temperature room at 25° C. using a light-dark cycle of 12 hours. On day 7 after planting, the ratios of healthy seedlings were compared between an untreated group and treated group to calculate control effects (control values).

Pythium aphanidermatum = test: Antimicrobial test (mycelia growth inhibition); format: cell-based; settings: compound concentration of 1 ppm, PSY medium, 25° C., days 3 to 7 of culturing, read-out: mycelia growth inhibition rate
Method: The compound according to the present invention was dissolved in dimethylsulfoxide and diluted to double the prescribed concentration in a 96-well microplate using PSY medium to obtain a drug solution. On the other hand, a diluted dimethylsulfoxide solution was prepared using PSY medium for use as an untreated group.
A suspension of liquid-cultured test microorganisms (Pythium aphanidermatum) was mixed with an equal volume of the drug solution and cultured in a dark location at 25° C. Mycelia growth was observed on days 3 to 7 of culturing to determine mycelia growth inhibition rates.

Structure (SMILES) | pest or weed control at 100 µg/mL [1] | pest or weed control at 100 ppm (Pythium ultimum) | inhibition at 1 ppm (Pythium aphanidermatum)
CCOC(OCC)C(=O)Nc1cccc(CO/N=C(/c2ccccc2)c2nnnn2C)n1 [a-1] | ≥ 70% | ≥ 50% | ≥ 50%
COC(CC(=O)Nc1cccc(CO/N=C(/c2ccccc2)c2nnnn2C)n1)OC [a-2, (Z)-(1-methyl-1H-tetrazol-5-yl)phenylmethanone-o-[2-(2,2-dimethoxyethanecarbonylamino)pyridin-6-ylmethyl]oxime] | ≥ 70% | ≥ 50% | ≥ 50%
Cn1nnnc1/C(=N\OCc1cccc(NC(=O)C2OCCO2)n1)c1ccccc1 [a-4] | ≥ 70% | ≥ 50% | ≥ 50%
Cn1nnnc1/C(=N\OCc1cccc(NC(=O)C2(C)OCCO2)n1)c1ccccc1 [a-5] |  |  | ≥ 50%
CCOC(CC(=O)Nc1cccc(CO/N=C(/c2ccccc2)c2nnnn2C)n1)OCC [a-6] | ≥ 70% | ≥ 50% | ≥ 50%
Cn1nnnc1/C(=N\OCc1cccc(NC(=O)CC2OCCO2)n1)c1ccccc1 [a-7] | ≥ 70% | ≥ 50% | ≥ 50%
CC(C)OC(OC(C)C)C(=O)Nc1cccc(CO/N=C(/c2ccccc2)c2nnnn2C)n1 [a-8] | ≥ 70% | ≥ 50% | 
CCCOC(OCCC)C(=O)Nc1cccc(CO/N=C(/c2ccccc2)c2nnnn2C)n1 [a-9] | ≥ 70% | ≥ 50% | ≥ 50%
CC1COC(CC(=O)Nc2cccc(CO/N=C(/c3ccccc3)c3nnnn3C)n2)O1 (stereo not shown) [a-10] | ≥ 70% |  | ≥ 50%
CCC1COC(CC(=O)Nc2cccc(CO/N=C(/c3ccccc3)c3nnnn3C)n2)O1 (stereo not shown) [a-11] | ≥ 70% |  | ≥ 50%
CC1OC(CC(=O)Nc2cccc(CO/N=C(/c3ccccc3)c3nnnn3C)n2)OC1C (stereo not shown) [a-12] | ≥ 70% |  | ≥ 50%
CC(C(=O)Nc1cccc(CO/N=C(/c2ccccc2)c2nnnn2C)n1)C1(C)OCCO1 (stereo not shown) [a-13] | ≥ 70% |  | 
Cn1nnnc1/C(=N\OCc1cccc(NC(=O)CC2OCC(C)(C)CO2)n1)c1ccccc1 [a-15] | ≥ 70% |  | ≥ 50%
Cn1nnnc1/C(=N\OCc1cccc(NC(=O)CC2(C)OCCO2)n1)c1ccccc1 [a-16] | ≥ 70% |  | 
COC(CCC(=O)Nc1cccc(CO/N=C(/c2ccccc2)c2nnnn2C)n1)OC [a-17] | ≥ 70% | ≥ 50% | ≥ 50%
CCOC(C)(OCC)C(=O)Nc1cccc(CO/N=C(/c2ccccc2)c2nnnn2C)n1 [a-18] | ≥ 70% | ≥ 50% | 
COC(C)(OC)C(=O)Nc1cccc(CO/N=C(/c2ccccc2)c2nnnn2C)n1 [a-19] | ≥ 70% |  | ≥ 50%
CCOC(OCC)C(C)C(=O)Nc1cccc(CO/N=C(/c2ccccc2)c2nnnn2C)n1 (stereo not shown) [a-20] | ≥ 70% | ≥ 50% | ≥ 50%
CCOC(OCC)C(C)(C)C(=O)Nc1cccc(CO/N=C(/c2ccccc2)c2nnnn2C)n1 [a-21] | ≥ 70% | ≥ 50% | 
CCSC(SCC)C(=O)Nc1cccc(CO/N=C(/c2ccccc2)c2nnnn2C)n1 [a-22] | ≥ 70% | ≥ 50% | ≥ 50%
Cn1nnnc1/C(=N\OCc1cccc(NC(=O)C2SCCCS2)n1)c1ccccc1 [a-23] | ≥ 70% | ≥ 50% | ≥ 50%
Cn1nnnc1/C(=N\OCc1cccc(NC(=O)C2(C)OCCCO2)n1)c1ccccc1 [a-24, (Z)-(1-methyl-1H-tetrazol-5-yl)phenylmethanone-o-[2-(2-methyl-1,3-dioxan-2-yl-carbonylamino)pyridin-6-ylmethyl]oxime] | ≥ 70% |  | ≥ 50%
Cn1nnnc1/C(=N\OCc1cccc(NC(=O)C2(C)OCCCCO2)n1)c1ccccc1 [a-25] | ≥ 70% | ≥ 50% | ≥ 50%
CCOC(SCC)C(=O)Nc1cccc(CO/N=C(/c2ccccc2)c2nnnn2C)n1 (stereo not shown) [a-26] | ≥ 70% | ≥ 50% | ≥ 50%
Cn1nnnc1/C(=N\OCc1cccc(NC(=O)C2(C)OCCCCCO2)n1)c1ccccc1 [a-27] | ≥ 70% | ≥ 50% | ≥ 50%
Cn1nnnc1/C(=N\OCc1cccc(NC(=O)C2(C)OCCOCCO2)n1)c1ccccc1 [a-28] | ≥ 70% | ≥ 50% | ≥ 50%
CCCOC(C)(OCCC)C(=O)Nc1cccc(CO/N=C(/c2ccccc2)c2nnnn2C)n1 [a-29] | ≥ 70% | ≥ 50% | ≥ 50%

Structure (SMILES) | pest or weed control at 100 µg/mL [1] | pest or weed control at 100 ppm (Pythium ultimum) | inhibition at 1 ppm (Pythium aphanidermatum)
CCOC(C)(OCC(F)(F)F)C(=O)Nc1cccc(CO/N=C(/c2ccccc2)c2nnnn2C)n1 (stereo not shown) [a-30] | ≥ 70% | ≥ 50% | ≥ 50%
CCOC(C)(OCCOC)C(=O)Nc1cccc(CO/N=C(/c2ccccc2)c2nnnn2C)n1 (stereo not shown) [a-31] | ≥ 70% | ≥ 50% | ≥ 50%
COCCOC(C)(OCCOC)C(=O)Nc1cccc(CO/N=C(/c2ccccc2)c2nnnn2C)n1 [a-32] | ≥ 70% |  | 
COCCC(=O)Nc1cccc(CO/N=C(/c2ccccc2)c2nnnn2C)n1 [b-1] | ≥ 70% |  | ≥ 50%
COC(C)C(=O)Nc1cccc(CO/N=C(/c2ccccc2)c2nnnn2C)n1 (stereo not shown) [b-4] |  |  | ≥ 50%
CCOCC(C)(COCC)C(=O)Nc1cccc(CO/N=C(/c2ccccc2)c2nnnn2C)n1 [b-5] |  |  | ≥ 50%
COCCC(C)C(=O)Nc1cccc(CO/N=C(/c2ccccc2)c2nnnn2C)n1 (stereo not shown) [b-9] |  | ≥ 50% | 
COCCCCC(=O)Nc1cccc(CO/N=C(/c2ccccc2)c2nnnn2C)n1 [b-11] |  | ≥ 50% | 
Cn1nnnc1/C(=N\OCc1cccc(NC(=O)OCCC2OCC(C)(C)CO2)n1)c1ccccc1 [c-1] | ≥ 70% | ≥ 50% | ≥ 50%
Cn1nnnc1/C(=N\OCc1cccc(NC(=O)OCC2(C)COCOC2)n1)c1ccccc1 [c-2] | ≥ 70% |  | ≥ 50%
Cn1nnnc1/C(=N\OCc1cccc(NC(=O)OCC2(C)COC(C)(C)OC2)n1)c1ccccc1 [c-3] | ≥ 70% |  | ≥ 50%
Cn1nnnc1/C(=N\OCc1cccc(NC(=O)OC2CCC3(CC2)OCCO3)n1)c1ccccc1 [c-5] | ≥ 70% | ≥ 50% | ≥ 50%
COC(CC(C)OC(=O)Nc1cccc(CO/N=C(/c2ccccc2)c2nnnn2C)n1)OC (stereo not shown) [c-6] | ≥ 70% | ≥ 50% | ≥ 50%
CC(OC(=O)Nc1cccc(CO/N=C(/c2ccccc2)c2nnnn2C)n1)C1OCCCO1 (stereo not shown) [c-11] | ≥ 70% |  | ≥ 50%
Cn1nnnc1/C(=N\OCc1cccc(NC(=O)OC(C)(C)C2OCCCO2)n1)c1ccccc1 [c-12] | ≥ 70% |  | ≥ 50%
CCOC1(OC(=O)Nc2cccc(CO/N=C(/c3ccccc3)c3nnnn3C)n2)CC1 [d-2] | ≥ 70% |  | 
Cn1nnnc1/C(=N\OCc1cccc(NC(=O)OCC2CO2)n1)c1ccccc1 (stereo not drawn) [d-5] | ≥ 70% |  | 
Cn1nnnc1/C(=N\OCc1cccc(NC(=O)OC2(C)CCOCC2)n1)c1ccccc1 [d-6] | ≥ 70% |  | ≥ 50%
Cn1nnnc1/C(=N\OCc1cccc(NC(=O)OC2(C)CCSCC2)n1)c1ccccc1 [d-7] | ≥ 70% |  | 
CCOCCCC(C)(C)OC(=O)Nc1cccc(CO/N=C(/c2ccccc2)c2nnnn2C)n1 [d-9] | ≥ 70% |  | ≥ 50%
COCCC(C)(C)OC(=O)Nc1cccc(CO/N=C(/c2ccccc2)c2nnnn2C)n1 [d-10] | ≥ 70% | ≥ 50% | 
COCCCCOC(=O)Nc1cccc(CO/N=C(/c2ccccc2)c2nnnn2C)n1 [d-11] | ≥ 70% |  | ≥ 50%
COCCCOC(=O)Nc1cccc(CO/N=C(/c2ccccc2)c2nnnn2C)n1 [d-12] | ≥ 70% |  | ≥ 50%
CCOC(OCC)C(=O)Nc1cccc(CO/N=C(/c2cccc(F)c2)c2nnnn2C)n1 [e-1] | ≥ 70% |  | ≥ 50%
CCOC(OCC)C(=O)Nc1cccc(CO/N=C(/c2ccc(F)c(C)c2)c2nnnn2C)n1 [e-2] | ≥ 70% |  | ≥ 50%
CCOC(OCC)C(=O)Nc1ccc(Cl)c(CO/N=C(/c2ccccc2)c2nnnn2C)n1 [e-3] | ≥ 70% |  | ≥ 50%
